Test results taken from ChEMBL document CHEMBL5543168, “Discovery of Urea Derivatives of Celastrol as Selective Peroxiredoxin 1 Inhibitors against Colorectal Cancer Cells” (J Med Chem, 2024).

Tests used:
SW-620 [1] = experiment: Inhibition of cell viability in human SW620 cells incubated for 72 hrs by Cell Titer Glo assay; format: functional, cell-based; details: SW-620, 72 h
Peroxiredoxin-1 = molecular target: T1, Peroxiredoxin-1 (Homo sapiens, UniProt Q06830); experiment: Inhibition of recombinant PRDX1 (unknown origin) using H2O2 as substrate preincubated for 0.5 hrs followed by substrate addition by TRX-TrxR-NADPH coupling assay
T1 sequence (Q06830 whole entry): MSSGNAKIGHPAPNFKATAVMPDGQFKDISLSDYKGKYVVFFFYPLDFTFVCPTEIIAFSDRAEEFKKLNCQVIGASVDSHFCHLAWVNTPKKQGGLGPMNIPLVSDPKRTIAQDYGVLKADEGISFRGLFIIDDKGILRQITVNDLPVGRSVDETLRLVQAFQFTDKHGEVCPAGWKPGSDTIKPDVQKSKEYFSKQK

HCT-116 = experiment: Inhibition of cell viability in human HCT-116 cells incubated for 72 hrs by Cell Titer Glo assay; format: functional, cell-based; details: HCT-116, 72 h
SW-620 [2] = experiment: cells; details: Homo sapiens, SW-620, 48 h, read-out: Activity
Description: Induction of apoptosis in human SW620 cells assessed as viable cells at 1 uM incubated for 48 hrs by Annexin V-FITC/PI staining based flow cytometry (Rvb = 90.7 %)

[3] = Acute toxicity in C57BL/[…] 6J mouse assessed as pathological change in spleen at 20 mg/kg, ip measured for 2 weeks by H and E staining based analysis; format: organism-based; details: in vivo, 336 h
SW-620 [4] = experiment: Antitumor activity against human SW620 cells xenografted in BALB/c nude mouse at 2 mg/kg, ip qd for 16 days relative to control; format: functional; details: SW-620, 384 h, time 16 day, read-out: TGI
[5] = Acute toxicity in C57BL/[…] 6J mouse assessed as pathological change in liver at 20 mg/kg, ip measured for 2 weeks by H and E staining based analysis; format: organism-based; details: in vivo, 336 h
[6] = Acute toxicity in C57BL/[…] 6J mouse assessed as animal death at 20 mg/kg, ip measured for 2 days; format: organism-based; details: in vivo, 48 h, time 2 day
[7] = Toxicity in BALB/c nude mouse xenografted with human SW620 cells assessed as body weight loss at 2 mg/kg, ip qd for 7 days; format: organism-based, SW-620; details: in vivo, 168 h, time 7 day
[8] = Acute toxicity in C57BL/[…] 6J mouse assessed as pathological change in kidney at 20 mg/kg, ip measured for 2 weeks by H and E staining based analysis; format: organism-based; details: in vivo, 336 h
[9] = Acute toxicity in C57BL/[…] 6J mouse assessed as pathological change in heart at 20 mg/kg, ip measured for 2 weeks by H and E staining based analysis; format: organism-based; details: in vivo, 336 h
SW-620 [10] = experiment: cells; details: Homo sapiens, SW-620, 48 h, read-out: Activity; remark: listed apart in the source
Description: Induction of apoptosis in human SW620 cells assessed as viable cells at 2 uM incubated for 48 hrs by Annexin V-FITC/PI staining based flow cytometry (Rvb = 90.7 %)

SW-620 [11] = experiment: cells; details: Homo sapiens, SW-620, 48 h, read-out: Activity; remark: listed apart in the source
Description: Induction of apoptosis in human SW620 cells assessed as viable cells at 0.5 uM incubated for 48 hrs by Annexin V-FITC/PI staining based flow cytometry (Rvb = 90.7 %)

IC50 (SW-620 [1])	IC50 (Peroxiredoxin-1)	IC50 (HCT-116)	Compound	also measured
> 20 µM	> 20 µM	> 20 µM	CC1=C(O)C(=O)C=C2C1=CC=C1[C@@]2(C)CC[C@@]2(C)[C@@H]3C[C@](C)(NC(=O)NC4(C(=O)O)COC4)CC[C@]3(C)CC[C@]12C	
0.35 µM	0.36 µM	0.65 µM	CCOC(=O)C1(NC(=O)N[C@]2(C)CC[C@]3(C)CC[C@]4(C)C5=CC=C6C(=CC(=O)C(O)=C6C)[C@]5(C)CC[C@@]4(C)[C@@H]3C2)CC1	
0.42 µM	0.31 µM	0.56 µM	CC1=C(O)C(=O)C=C2C1=CC=C1[C@@]2(C)CC[C@@]2(C)[C@@H]3C[C@](C)(NC(=O)N[C@@H](C)C(N)=O)CC[C@]3(C)CC[C@]12C	
0.33 µM	0.49 µM	0.8 µM	COC(=O)[C@@H](NC(=O)N[C@]1(C)CC[C@]2(C)CC[C@]3(C)C4=CC=C5C(=CC(=O)C(O)=C5C)[C@]4(C)CC[C@@]3(C)[C@@H]2C1)[C@@H](C)O	
0.39 µM	0.38 µM	0.8 µM	COC(=O)C1(NC(=O)N[C@]2(C)CC[C@]3(C)CC[C@]4(C)C5=CC=C6C(=CC(=O)C(O)=C6C)[C@]5(C)CC[C@@]4(C)[C@@H]3C2)COC1	
0.49 µM	0.64 µM	0.83 µM	COC(=O)CNC(=O)N[C@]1(C)CC[C@]2(C)CC[C@]3(C)C4=CC=C5C(=CC(=O)C(O)=C5C)[C@]4(C)CC[C@@]3(C)[C@@H]2C1	
0.64 µM	0.47 µM	0.74 µM	COC(=O)[C@H](CO)NC(=O)N[C@]1(C)CC[C@]2(C)CC[C@]3(C)C4=CC=C5C(=CC(=O)C(O)=C5C)[C@]4(C)CC[C@@]3(C)[C@@H]2C1	

The next lines start with the molecule.

Compound	IC50 (SW-620 [1])	IC50 (Peroxiredoxin-1)	IC50 (HCT-116)	also measured
COC(=O)[C@H](Cc1ccc(O)cc1)NC(=O)N[C@]1(C)CC[C@]2(C)CC[C@]3(C)C4=CC=C5C(=CC(=O)C(O)=C5C)[C@]4(C)CC[C@@]3(C)[C@@H]2C1	0.22 µM	0.42 µM	0.43 µM	
COC(=O)[C@H](Cc1c[nH]c2ccccc12)NC(=O)N[C@]1(C)CC[C@]2(C)CC[C@]3(C)C4=CC=C5C(=CC(=O)C(O)=C5C)[C@]4(C)CC[C@@]3(C)[C@@H]2C1	0.31 µM	0.34 µM	0.56 µM	
COC(=O)CC[C@H](NC(=O)N[C@]1(C)CC[C@]2(C)CC[C@]3(C)C4=CC=C5C(=CC(=O)C(O)=C5C)[C@]4(C)CC[C@@]3(C)[C@@H]2C1)C(=O)OC	0.35 µM	0.37 µM	0.57 µM	
CC1=C(O)C(=O)C=C2C1=CC=C1[C@@]2(C)CC[C@@]2(C)[C@@H]3C[C@](C)(NC(=O)N[C@H]4C[C@H](CO)[C@H](O)C4)CC[C@]3(C)CC[C@]12C	2.1 µM	0.46 µM	3.1 µM	
COC(=O)[C@H](CCSC)NC(=O)N[C@]1(C)CC[C@]2(C)CC[C@]3(C)C4=CC=C5C(=CC(=O)C(O)=C5C)[C@]4(C)CC[C@@]3(C)[C@@H]2C1	1.4 µM	0.54 µM	1.8 µM	
CC1=C(O)C(=O)C=C2C1=CC=C1[C@@]2(C)CC[C@@]2(C)[C@@H]3C[C@](C)(NC(=O)N[C@H](C)CO)CC[C@]3(C)CC[C@]12C	0.6 µM	0.53 µM	0.84 µM	
CC1=C(O)C(=O)C=C2C1=CC=C1[C@@]2(C)CC[C@@]2(C)[C@@H]3C[C@](C)(C(=O)O)CC[C@]3(C)CC[C@]12C [CELASTROL]	0.67 µM		1.4 µM	viability at 1 µM (SW-620 [2]): 84.2%; Activity [3]: Toxic; inhibition in vivo at 2 mg/kg (SW-620 [4]): 28%; Activity [5]: Toxic; Activity [6]: Toxic; Activity [7]: Toxic; Activity [8]: Toxic; Activity [9]: Toxic; viability at 2 µM (SW-620 [10]): 27.4%; viability at 0.5 µM (SW-620 [11]): 87.4%
CC1=C(O)C(=O)C=C2C1=CC=C1[C@@]2(C)CC[C@@]2(C)[C@@H]3C[C@](C)(NC(=O)NC(CO)CO)CC[C@]3(C)CC[C@]12C	1.9 µM	0.45 µM	2.7 µM	
CC1=C(O)C(=O)C=C2C1=CC=C1[C@@]2(C)CC[C@@]2(C)[C@@H]3C[C@](C)(NC(=O)N[C@H]4CCOC4=O)CC[C@]3(C)CC[C@]12C	0.48 µM	0.33 µM	0.68 µM	
COC(=O)[C@@H]1C[C@@H](O)CN1C(=O)N[C@]1(C)CC[C@]2(C)CC[C@]3(C)C4=CC=C5C(=CC(=O)C(O)=C5C)[C@]4(C)CC[C@@]3(C)[C@@H]2C1	0.26 µM	0.36 µM	0.44 µM	
CC1=C(O)C(=O)C=C2C1=CC=C1[C@@]2(C)CC[C@@]2(C)[C@@H]3C[C@](C)(NC(=O)NCCOCCO)CC[C@]3(C)CC[C@]12C	0.79 µM	0.41 µM	1 µM	
COC(=O)[C@@H]1CCCN1C(=O)N[C@]1(C)CC[C@]2(C)CC[C@]3(C)C4=CC=C5C(=CC(=O)C(O)=C5C)[C@]4(C)CC[C@@]3(C)[C@@H]2C1	0.28 µM	0.47 µM	0.23 µM	
COC(=O)[C@H](C)NC(=O)N[C@]1(C)CC[C@]2(C)CC[C@]3(C)C4=CC=C5C(=CC(=O)C(O)=C5C)[C@]4(C)CC[C@@]3(C)[C@@H]2C1	0.33 µM	0.49 µM	0.8 µM	
COC(=O)[C@H](CCCCNC(=O)OC(C)(C)C)NC(=O)N[C@]1(C)CC[C@]2(C)CC[C@]3(C)C4=CC=C5C(=CC(=O)C(O)=C5C)[C@]4(C)CC[C@@]3(C)[C@@H]2C1	0.33 µM	0.4 µM	0.41 µM	
CC1=C(O)C(=O)C=C2C1=CC=C1[C@@]2(C)CC[C@@]2(C)[C@@H]3C[C@](C)(NC(=O)NC(CO)(CO)CO)CC[C@]3(C)CC[C@]12C	1.1 µM	0.5 µM	2.5 µM	
COC(=O)[C@@H](NC(=O)N[C@]1(C)CC[C@]2(C)CC[C@]3(C)C4=CC=C5C(=CC(=O)C(O)=C5C)[C@]4(C)CC[C@@]3(C)[C@@H]2C1)C(C)C	0.19 µM	0.46 µM	0.34 µM	
